Measurements taken from US20240417410A1, “TRICYCLIC COMPOUNDS FOR THE TREATMENT OF CANCER” (Hoffmann-La Roche Inc., priority 2023, published 2024).

Experiments:
[1] = tested on: NCI-H1373-luc intracranial tumors; experiment: Brain metastasis intracranial model, efficacy (bioluminescence); format: in vivo
Description: The purpose of this assay is to determine whether brain exposure of the compounds of current invention was sufficient to mediate regression of tumors in experimental Brain Metastases (BM) models.
NCI-H1373 cell line was purchased from the ATCC (CRL-5866). NCI-H1373-Luc cells were generated by WuXi AppTec. For generating NCI-H1373-Luc cell line, NCI-H1373 cells were transduced with GFP-Luc-puro lentivirus vector (HBLV-1014, HANBIO, carrying cDNA coding for firefly luciferase) and then selected with 1 μg/mL puromycin. All cells were authenticated by short tandem repeat fingerprinting, and periodically tested to be Mycoplasma free. H1373-luc cells were cultured in medium containing RPMI1640 (Thermo Fisher Scientific) plus 10% Fetal Bovine Serum (FBS, Thermo Fisher Scientific, 2.5 μg/mL puromycin and 1% Antibiotic-Antimycotic (Thermo Fisher Scientific), at 37° C. in an atmosphere of 5% CO2 in air. The medium was renewed every 2 to 3 days and tumor cells were routinely sub-cultured at a confluence of 80-90%. Cells growing in an exponential growth phase were harvested and counted for inoculation.
Murine studies were conducted at the WuXi AppTec and were performed in compliance with all applicable regulations and guidelines of the Institutional Animal Care and Use Committee (IACUC). Mice were maintained in a special pathogen-free environment and in individual ventilation cages, and food and water will be sterilized before use. 8 to 9 weeks female NU/NU nude mice (Charles River Lab.) were implanted intracarotid injection with 0.5×10^5 NCI-H1373-Luc cells in 100 μL serum-free media. When bioluminescence reached a mean of 1.28E+08 photons/second (range of 5.79E+07-2.685E+08 photons/second) at day 15 post inoculation, tumor-bearing mice were randomized into different groups with 4 mice in each group. The randomization date was denoted as treatment day 0. Afterwards, oral daily dosing of vehicle or Example 24 began and continued for 14 days. Baseline bioluminescent imaging (BLI) began 24 hours prior to initial dosing with vehicle or test articles, and additional imaging time points for all animals were measured twice a week by Xenogen machine (PerkinElmer IVIS Lumina II) between 0-14 days post grouping. […]
TGI (tumor growth inhibition) was calculated for each group using the formula: TGI (%)=[1−(Ti−T0)/(Vi−V0)]×100; Ti is the average tumor bioluminescence of a treatment group on a given day, T0 is the average tumor bioluminescence of the treatment group on the day of treatment start, Vi is the average tumor bioluminescence of the vehicle control group on the same day with Ti, and V0 is the average tumor bioluminescence of the vehicle group on the day of treatment start. […]

[2] = tested on: phosphorylation of ERK, KRAS G12C in NCI-H358 cells; experiment: pERK inhibition assay; format: cell-based; settings: Homo sapiens, NCI-H358, 4 h
Summary of the method: (§1)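 Phospho-ERK quantified by in-cell ELISA with TMB read-out at OD450 following 4 h compound exposure (final 0.5% DMSO). Cell lines were SW620 (KRAS G12V), AGS (G12D) and NCI-H358 (G12C), grown in RPMI-1640 with 10% FBS. A 4-parameter sigmoidal model gave the IC50.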

[3] = tested on: phosphorylation of ERK, KRAS G12V in SW620; experiment: pERK inhibition assay; format: cell-based; settings: Homo sapiens, SW-620, 4 h, SW620 cells
Summary of the method: as §1

[4] = tested on: phosphorylation of ERK, KRAS G12D in AGS cells; experiment: pERK inhibition assay; format: cell-based; settings: 4 hours
Summary of the method: as §1

[5] = day 14, 30 mg/kg, PO, QD, NCI-H1373-luc intracranial

CO[C@@H](C)c1ncc(N2CCN(C)CC2)cc1-c1c2c3cc(cc4c3n1CCC4)-c1csc(n1)C[C@H](NC(=O)[C@H]1[C@H](C)[C@@H]1C)C(=O)N1CCC[C@H](N1)C(=O)OCC(C)(C)C2 (atropisomer, axis not shown; (M)) [Example 24, (1r,2R,3S)-N-[(7S,13S)-(20M)-20-[2-[(1S)-1-methoxyethyl]-5-(4-methylpiperazin-1-yl)-3-pyridyl]-17,17-dimethyl-8,14-dioxo-15-oxa-4-thia-9,21,30,31-tetrazahexacyclo[23.3.1.1^2,5.1^9,13.0^19,27.0^21,26]hentriaconta-1 (28),2,5 (31), 19,25 (29),26-hexaen-7-yl]-2,3-dimethyl-cyclopropanecarboxamide]
tolerability (overt toxicity, animal weight) ([1]; 30 mg/kg once daily for 14 days, NCI-H1373-luc intracranial model): no sign of overt toxicity or animal weight loss | ROI [1, 5]: 1.34 ± 0.75 ×10^7 photon/s | T/C [1, 5]: 0.52% | TGI [1, 5]: 104.68% | IC50 [2]: < 0.6 nM | IC50 [3]: < 0.6 nM | IC50 [4]: 0.9 nM
